Experiments:
Assay in all cases: pre-steady-state half-reaction of the PLP form, aldimine decrease at […] nm
Assay type in all cases: biochemical
[1] = target: T1, TaTT (transaminase from Thermobaculum terrenum) (Thermobaculum terrenum, UniProt D1CCW1, G40V/Y100F); details: mP2; 50 mM CHES pH 9.0, 40 °C; no amino acceptor; constant from kobs vs. substrate; read-out: pH 9.0, CHES buffer, 40°C / KD, / mM
T1 construct: gene ilvE; N-terminal His6TEV-tag, expressed in E. coli BL21(DE3)pLys; tag cut by TEV for crystals (309 visible residues, 5 N-terminal and 3 C-terminal residues invisible); functional dimer

[2] = target: T2, TaTT (transaminase from Thermobaculum terrenum) (Thermobaculum terrenum, UniProt D1CCW1, G40V/R42S/Y100F/S114R); details: mP3O1; 50 mM CHES pH 9.0, 40 °C; no amino acceptor; constant from kobs vs. substrate; read-out: pH 9.0, CHES buffer, 40°C / KD, / mM
T2 construct: gene ilvE; N-terminal His6TEV-tag, expressed in E. coli BL21(DE3)pLys; tag cut by TEV for crystals (309 visible residues, 5 N-terminal and 3 C-terminal residues invisible); functional dimer

[3] = target: T3, TaTT (transaminase from Thermobaculum terrenum) (Thermobaculum terrenum, UniProt D1CCW1, W31H/F38Y/G40V/R42S/Y100F); details: mP3O7; 50 mM Tris-HCl pH 8.0, 30 °C; no amino acceptor; constant from kobs vs. substrate; read-out: pH 8.0, Tris-HCl buffer, 30°C / KD, / mM
T3 construct: gene ilvE; N-terminal His6TEV-tag, expressed in E. coli BL21(DE3)pLys; tag cut by TEV for crystals (309 visible residues, 5 N-terminal and 3 C-terminal residues invisible); functional dimer

[4] = target: T4, TaTT (transaminase from Thermobaculum terrenum) (Thermobaculum terrenum, UniProt D1CCW1); details: 50 mM CHES pH 9.0, 40 °C; no amino acceptor; constant from kobs vs. substrate; read-out: pH 9.0, CHES buffer, 40°C / KD, / mM
T4 construct: gene ilvE; N-terminal His6TEV-tag, expressed in E. coli BL21(DE3)pLys; tag cut by TEV for crystals (309 visible residues, 5 N-terminal and 3 C-terminal residues invisible); functional dimer

[5] = target: T5, TaTT (transaminase from Thermobaculum terrenum) (Thermobaculum terrenum, UniProt D1CCW1, S114R); details: mO1; 50 mM CHES pH 9.0, 40 °C; no amino acceptor; constant from kobs vs. substrate; read-out: pH 9.0, CHES buffer, 40°C / KD, / mM
T5 construct: gene ilvE; N-terminal His6TEV-tag, expressed in E. coli BL21(DE3)pLys; tag cut by TEV for crystals (309 visible residues, 5 N-terminal and 3 C-terminal residues invisible); functional dimer

[6] = target: T6, TaTT (transaminase from Thermobaculum terrenum) (Thermobaculum terrenum, UniProt D1CCW1, G40V/R42S/Y100F); details: mP3; 50 mM CHES pH 9.0, 40 °C; no amino acceptor; constant from kobs vs. substrate; read-out: pH 9.0, CHES buffer, 40°C / KD, / mM
T6 construct: gene ilvE; N-terminal His6TEV-tag, expressed in E. coli BL21(DE3)pLys; tag cut by TEV for crystals (309 visible residues, 5 N-terminal and 3 C-terminal residues invisible); functional dimer
T6 sequence (D1CCW1 entry or part of it G40V/R42S/Y100F): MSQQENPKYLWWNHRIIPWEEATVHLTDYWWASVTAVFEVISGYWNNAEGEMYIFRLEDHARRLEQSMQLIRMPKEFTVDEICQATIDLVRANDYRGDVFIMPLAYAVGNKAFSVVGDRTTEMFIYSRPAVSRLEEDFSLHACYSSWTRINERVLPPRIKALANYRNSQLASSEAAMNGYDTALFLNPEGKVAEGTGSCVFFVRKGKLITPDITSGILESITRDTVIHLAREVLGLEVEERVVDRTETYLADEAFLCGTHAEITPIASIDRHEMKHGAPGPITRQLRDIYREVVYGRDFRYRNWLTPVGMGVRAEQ

T1 sequence (D1CCW1 entry or part of it G40V/Y100F): as the sequence (D1CCW1 entry or part of it G40V/R42S/Y100F) above, with S42R counted along it
T5 sequence (D1CCW1 entry or part of it S114R): as the sequence (D1CCW1 entry or part of it G40V/R42S/Y100F) above, with V40G, S42R, F100Y, S114R counted along it
T4 sequence (D1CCW1 entry or part of it): as the sequence (D1CCW1 entry or part of it G40V/R42S/Y100F) above, with V40G, S42R, F100Y counted along it
T3 sequence (D1CCW1 entry or part of it W31H/F38Y/G40V/R42S/Y100F): as the sequence (D1CCW1 entry or part of it G40V/R42S/Y100F) above, with W31H, F38Y counted along it
T2 sequence (D1CCW1 entry or part of it G40V/R42S/Y100F/S114R): as the sequence (D1CCW1 entry or part of it G40V/R42S/Y100F) above, with S114R counted along it

C[C@@H](N)c1ccccc1 [R-PEA, (R)-(+)-1-phenylethylamine]
Kd [1]: 13 ± 2 mM
Kd [2]: 1.5 ± 0.5 mM
Kd [3]: 44 ± 8 mM
Kd [4]: 81 ± 8 mM
Kd [5]: 3.3 ± 1.2 mM
Kd [6]: 2.6 ± 0.4 mM

From PMC8320979, “Probing the role of the residues in the active site of the transaminase from Thermobaculum terrenum” (PLoS ONE, 2021)
